Results reported in patent US8772284B2, “Method of treating cancer using combination of a bifunctional alkylating agent and DNA repair inhibitors” (Academia Sinica, priority 2009, dated 2014).

Columns and labels:
[1] = system: CL-1-5 xenografts; settings: CL-1-5 xenograft; LY294002 40 mg/Kg QD×9, triciribine 1 mg/Kg Q2D×5, BO-1509 10 mg/Kg
[2] = system: NTUB1 cells; test: Cell viability, WST-1 assay; assay type: cell-based, human; settings: agent alone
Text: (§1) Cell Lines and Cell Culture. H460 (human lung large cell carcinoma cells), H1299 (human lung large cell carcinoma p53-deficient cells), PC3 (human prostate carcinoma cells), U87 (human glioma cells), and MCF7 (human breast carcinoma cells) were purchased from the American Type Culture Collection (Rockville, Md.). OEC-M1 (human gingival squamous cell carcinoma cells) was obtained from Dr. C.-L. Meng (National Defense Medical College, Taiwan). NTUB1 (human bladder transitional carcinoma cells) and the cisplatin-resistant sub-line NTUB1/P were provided by Dr. Y.-S. Pu (National Taiwan University Hospital, Taiwan). CL-1-5 (human lung adenocarcinoma cells) was obtained from Dr. P. C. Yang (National Taiwan University). All cell lines (except U87, which was grown in MEM medium) were cultured in RPMI1640 medium supplemented with 10% FBS and antibiotics, and incubated at 37° C. in a humidified atmosphere with 5% CO2.
(§2) Measurement of Cell Viability. Cell viability was assessed using the cell proliferation reagent WST-1 (Roche Molecular Biochemicals, Penzberg, Germany), which is a tetrazolium salt that is cleaved by mitochondrial dehydrogenase in viable cells. In brief, 2,000-7,000 cells were seeded in each well of 96-well plates and incubated at 37° C. overnight prior to drug treatment. After a 72-h incubation with BO-1012 alone (0.1˜80 μM), ATO alone (1˜8 μM), or BO-1012 plus ATO, WST-1 solution was added to each well at a 1:10 dilution, and cells were incubated at 37° C. in 5% CO2 for 4 h. Cell viability was assessed by absorbance at 460 nm using an automatic enzyme-linked immunosorbent assay (ELISA) plate reader. The IC50 value for each drug, alone or in combination, was calculated using CompuSyn software (version 1.0.1; CompuSyn, Inc.). The interactions between ATO and BO-1012 were evaluated by the Chou-Talalay combination indices (CI), where CI<1 indicates synergy; CI=1, additivity; and CI>1, antagonism.

[3] = system: NTUB1/P cells (cisplatin-resistant); test: Cell viability, WST-1 assay; assay type: cell-based, human; settings: for IC50: NTUB1/P cells, agent alone
Text: as §1, §2

[4] = system: NTUB1/P cells (cisplatin-resistant); settings: NTUB1/P vs NTUB1, stated with ref [37]; cited from earlier work
[5] = system: DNA ICLs in H460 cells; test: Modified comet assay, formation and repair of DNA ICLs; assay type: cell-based, human; settings: treated 1 h
Description: (§3) H460 cells were treated with various concentrations of BO-1012, melphalan, or thiotepa for 1 h and then subjected to the modified comet assay as described in Materials and Methods. Percentage of DNA ICLs was calculated by the percentage of decrease in tail moment. […] H460 cells were treated with 40 μM BO-1012 for 1 h, washed, and then treated with 8 μM ATO for 16, 24, and 48 h. *, p<0.05 as compared to BO-1012 alone at the indicated time. […] H460 cells were treated with BO-1012 and ATO, alone or in combination, as described above. After treatment, the detection of γH2AX (green) immunofluorescence staining was performed as described in Materials and Methods. Nuclei were stained by DAPI (blue).
Modified Single-Cell Gel Electrophoresis (Comet) and DNA ICL Repair Assays. The formation and the repair of DNA ICLs in H460 cells was analyzed using a modified comet assay as described previously.

[6] = system: γH2AX nuclear foci in H460 cells; test: γH2AX nuclear foci, immunofluorescence staining; assay type: cell-based, human; settings: time not stated
Description: as §3
Immunofluorescence Staining. H460 cells were cultured onto slides and then treated with BO-1012 and ATO, separately and in combination as described above, for 24, 48, or 72 h. To visualize γH2AX, cells were washed with cold PBS and fixed with 100% ice-cold methanol for 30 min. Slides were washed with PBS and incubated with anti-γH2AX antibody for 2 h at room temperature followed by Alexa Fluor 488-conjugated secondary antibodies (Molecular Probes, Eugene, Oreg.) and DAPI. After mounting with 50% glycerol, slides were subjected to confocal image analysis (Radiance 2100 System, Bio-Rad). Cells with at least four γH2AX foci in nuclei were counted as positive.

[7] = system: H460 xenografts; test: H460 xenograft mouse model; assay type: in vivo, nude mice; settings: 2.5 mg/kg BO-1012 and/or 5 mg/kg ATO, i.v., QD×5
[8] = system: NTUB1 xenografts; test: NTUB1 xenograft mouse model; assay type: in vivo, nude mice; settings: 2.5 mg/kg BO-1012 or 5 mg/kg ATO, i.v., QD×5
[9] = system: NTUB1/P xenografts; test: NTUB1/P xenograft mouse model; assay type: in vivo, nude mice; settings: 5 mg/kg ATO, i.v., QD×5

Row | Molecule | IC50 [2] [µM] | IC50 [3] [µM] | formation of ICLs [5] | also measured
1 | O=c1cc(N2CCOCC2)oc2c(-c3ccccc3)cccc12 [LY294002, 2-(4-morpholinyl)-8-phenyl-chromone] |  |  |  | suppression of tumor growth [1]: unable to suppress the tumor growth at all
2 | N.N.[Cl][Pt][Cl] [cisplatin] | 3.6 | 212 |  | fold more resistant to cisplatin than the parental cells [4]: 60 fold
3 | N[C@@H](Cc1ccc(N(CCCl)CCCl)cc1)C(=O)O [melphalan] |  |  | increased in a dose-dependent fashion | 
4 | S=P(N1CC1)(N1CC1)N1CC1 [thiotepa] |  |  | increased in a dose-dependent fashion | 
5 | arsenic trioxide [ATO] | 0.4 | 3.8 | did not cause ICLs | fold more resistant, NTUB1/P than NTUB1 cells ([3]; ratio of IC50 values): 9.5 fold; percentage of cells with γH2AX foci [6]: 26.8%; time to achieve a tumor volume of 500 mm^3 [7]: 7.1 days; growth of NTUB1 tumors [8]: did not effectively suppress; growth of NTUB1/P tumors [9]: did not effectively suppress
